Compound: Cn1c(=O)n(-c2ccc(C(C)(C)C#N)cc2)c2c3cc(-c4cnc5ccccc5c4)ccc3ncc21 [Dactolisib] + Nc1nc2[nH]cc(CCc3ccc(C(=O)N[C@@H](CCC(=O)O)C(=O)O)cc3)c2c(=O)[nH]1 [Pemetrexed] (partner 0.2 µM)
Test: relative viability (nuclei count vs DMSO), 5 days (fraction); higher = more cells survive
Conditions: first compound 0.002 µM
In short: (§1)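 Lung cancer cell lines in 1536-well plates got either a single drug or a fixed anchor-drug dose together with five library-drug doses (not always all listed) in √10 steps, by pin tool, on the day after seeding. Nuclei were counted after 5 days, and relative viability is the treated-to-vehicle ratio of nuclei counts. Values are medians of duplicate plates.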

Going from NCI-H1355 to NCI-H3122, the relative viability falls from 1.08 to 0.171.

Going from NCI-H1437 to NCI-H1755, the relative viability rises from 0.309 to 0.414.

Going from NCI-H2023 to HCC-15, the relative viability rises from 0.172 to 0.215.

Compared with NCI-H1793, PC-14 is lower in relative viability: 0.751 for the first, 0.0904 for the second.

Going from EKVX to LC-2-ad, the relative viability rises from 0.248 to 0.263.

Compared with NCI-H1944, NCI-H1975 is lower in relative viability: 0.461 for the first, 0.299 for the second.

First: RERF-LC-KJ
Second: PC-3 [JPC-3]
The relative viability of the first is lower: 0.488 for the first, 1.35 for the second.

Same assay, conditions: first compound 0.006325 µM

First: NCI-H1355
Second: NCI-H3122
The relative viability of the first is higher: 1.03 for the first, 0.189 for the second.

Going from NCI-H1437 to NCI-H1755, the relative viability rises from 0.347 to 0.389.

Going from NCI-H2023 to HCC-15, the relative viability rises from 0.182 to 0.22.

Compared with NCI-H1793, PC-14 is lower in relative viability: 0.409 for the first, 0.129 for the second.

Compared with EKVX, LC-2-ad is lower in relative viability: 0.357 for the first, 0.302 for the second.

Compared with NCI-H1944, NCI-H1975 is lower in relative viability: 0.564 for the first, 0.32 for the second.

First: RERF-LC-KJ
Second: PC-3 [JPC-3]
The relative viability of the first is lower: 0.479 for the first, 1.11 for the second.

Same assay, conditions: first compound 0.02 µM

First: NCI-H1355
Second: NCI-H3122
The relative viability of the first is higher: 1.02 for the first, 0.203 for the second.

First: NCI-H1437
Second: NCI-H1755
The relative viability of the first is lower: 0.312 for the first, 0.455 for the second.

Going from NCI-H2023 to HCC-15, the relative viability rises from 0.179 to 0.26.

Going from NCI-H1793 to PC-14, the relative viability falls from 0.266 to 0.192.

Compared with EKVX, LC-2-ad is lower in relative viability: 0.387 for the first, 0.276 for the second.

First: NCI-H1944
Second: NCI-H1975
The relative viability of the first is higher: 0.585 for the first, 0.297 for the second.

First: RERF-LC-KJ
Second: PC-3 [JPC-3]
The relative viability of the first is lower: 0.46 for the first, 1 for the second.

Same assay, conditions: first compound 0.06325 µM

Compared with NCI-H1355, NCI-H3122 is lower in relative viability: 0.861 for the first, 0.192 for the second.

First: NCI-H1437
Second: NCI-H1755
The relative viability of the first is lower: 0.27 for the first, 0.393 for the second.

Going from NCI-H2023 to HCC-15, the relative viability rises from 0.101 to 0.25.

First: NCI-H1793
Second: PC-14
The relative viability of the first is higher: 0.214 for the first, 0.197 for the second.

Going from EKVX to LC-2-ad, the relative viability falls from 0.356 to 0.264.

Going from NCI-H1944 to NCI-H1975, the relative viability falls from 0.286 to 0.244.

Going from RERF-LC-KJ to PC-3 [JPC-3], the relative viability rises from 0.433 to 1.26.

Same assay, conditions: first compound 0.2 µM

Going from NCI-H1355 to NCI-H3122, the relative viability falls from 0.65 to 0.211.

Going from NCI-H1437 to NCI-H1755, the relative viability rises from 0.227 to 0.412.

First: NCI-H2023
Second: HCC-15
The relative viability of the first is lower: 0.0876 for the first, 0.231 for the second.

Compared with NCI-H1793, PC-14 is lower in relative viability: 0.168 for the first, 0.145 for the second.

Compared with EKVX, LC-2-ad is lower in relative viability: 0.294 for the first, 0.272 for the second.

Compared with NCI-H1944, NCI-H1975 is lower in relative viability: 0.244 for the first, 0.181 for the second.

Compared with RERF-LC-KJ, PC-3 [JPC-3] is higher in relative viability: 0.434 for the first, 0.555 for the second.

Compound: Cn1c(=O)n(-c2ccc(C(C)(C)C#N)cc2)c2c3cc(-c4cnc5ccccc5c4)ccc3ncc21 [Dactolisib] + COc1cc2c(Oc3ccc(NC(=O)C4(C(=O)Nc5ccc(F)cc5)CC4)cc3F)ccnc2cc1OCCCN1CCOCC1 [Foretinib] (partner 0.25 µM)
Test: as above
Conditions: first compound 0.002 µM
In short: as §1

First: NCI-H1355
Second: NCI-H3122
The relative viability of the first is higher: 1.05 for the first, 0.932 for the second.

Compared with NCI-H1437, NCI-H1755 is lower in relative viability: 1.37 for the first, 0.903 for the second.

Going from HCC-15 to NCI-H1793, the relative viability falls from 1.02 to 0.655.

Going from PC-14 to EKVX, the relative viability falls from 0.982 to 0.598.

Compared with LC-2-ad, NCI-H1944 is higher in relative viability: 1.08 for the first, 1.13 for the second.

Going from NCI-H1975 to RERF-LC-KJ, the relative viability falls from 1.06 to 0.852.

In the case of PC-3 [JPC-3], the relative viability is reported as 1.13.

Same assay, conditions: first compound 0.006325 µM

First: NCI-H1355
Second: NCI-H3122
The relative viability of the first is lower: 0.902 for the first, 0.934 for the second.

First: NCI-H1437
Second: NCI-H1755
The relative viability of the first is higher: 1.28 for the first, 0.924 for the second.

Compared with NCI-H2023, HCC-15 is higher in relative viability: 0.672 for the first, 1.01 for the second.

First: NCI-H1793
Second: PC-14
The relative viability of the first is lower: 0.416 for the first, 0.97 for the second.

Going from EKVX to LC-2-ad, the relative viability rises from 0.743 to 0.917.

Going from NCI-H1944 to NCI-H1975, the relative viability falls from 0.914 to 0.897.

Compared with RERF-LC-KJ, PC-3 [JPC-3] is higher in relative viability: 0.826 for the first, 1.06 for the second.

Same assay, conditions: first compound 0.02 µM

Compared with NCI-H1355, NCI-H3122 is higher in relative viability: 0.664 for the first, 1.05 for the second.

First: NCI-H1437
Second: NCI-H1755
The relative viability of the first is higher: 1.25 for the first, 0.936 for the second.

Going from NCI-H2023 to HCC-15, the relative viability rises from 0.491 to 0.936.

Going from NCI-H1793 to PC-14, the relative viability rises from 0.241 to 0.973.

First: EKVX
Second: LC-2-ad
The relative viability of the first is lower: 0.652 for the first, 0.839 for the second.

Going from NCI-H1944 to NCI-H1975, the relative viability falls from 0.852 to 0.715.

First: RERF-LC-KJ
Second: PC-3 [JPC-3]
The relative viability of the first is lower: 0.87 for the first, 1.03 for the second.

Same assay, conditions: first compound 0.06325 µM

Going from NCI-H1355 to NCI-H3122, the relative viability rises from 0.509 to 1.03.

Compared with NCI-H1437, NCI-H1755 is lower in relative viability: 1.24 for the first, 0.676 for the second.

First: NCI-H2023
Second: HCC-15
The relative viability of the first is lower: 0.343 for the first, 0.548 for the second.

Going from NCI-H1793 to PC-14, the relative viability rises from 0.2 to 0.592.

Compared with EKVX, LC-2-ad is lower in relative viability: 0.715 for the first, 0.545 for the second.

First: NCI-H1944
Second: NCI-H1975
The relative viability of the first is lower: 0.425 for the first, 0.454 for the second.

Compared with RERF-LC-KJ, PC-3 [JPC-3] is higher in relative viability: 0.527 for the first, 0.816 for the second.

Same assay, conditions: first compound 0.2 µM

First: NCI-H1355
Second: NCI-H3122
The relative viability of the first is lower: 0.223 for the first, 0.855 for the second.

Compared with NCI-H1437, NCI-H1755 is lower in relative viability: 1.34 for the first, 0.691 for the second.

Going from NCI-H2023 to HCC-15, the relative viability rises from 0.153 to 0.446.

First: NCI-H1793
Second: PC-14
The relative viability of the first is lower: 0.166 for the first, 0.399 for the second.

Compared with EKVX, LC-2-ad is lower in relative viability: 0.568 for the first, 0.551 for the second.

Compared with NCI-H1944, NCI-H1975 is lower in relative viability: 0.392 for the first, 0.334 for the second.

Going from RERF-LC-KJ to PC-3 [JPC-3], the relative viability rises from 0.399 to 0.565.
